This note sets out measurements from ChEMBL document CHEMBL1201862, “PubChem BioAssay data set” (2004).

Test in all cases: NCI-60 cell line screen, 48 h
Assay [1] has as its system SK-MEL-2.
The subject of assay [2] is OVCAR-4.
For assay [3], the system named is BT-549.
The subject of assay [4] is ACHN.
The subject of assay [5] is HOP-62.
The test system of assay [6] is MOLT-4.
Assay [7] concerns NCI-H23.
Assay [8] deals with MDA-MB-231.
The test system of assay [9] is A498.
Assay [10] relates to DU-145.
Assay [11] relates to A549.
For assay [12], the system named is COLO 205.
Assay [13] deals with IGROV-1.
For assay [14], the system named is HCT-15.
For assay [15], the system named is MDA-MB-435.
In assay [16] the test system is SNB-75.
For assay [17], the system named is NCI-H460.
In assay [18] the test system is 786-0.
For assay [19], the system named is CAKI-1.
Assay [20] concerns K562.

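Protocol summary: plate cells (96-well), add compound at 5 concentrations, incubate 48 h, interpolate endpoints linearly. GI50 is the concentration that inhibits growth by half.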 The source made the active and inactive calls. Rule as the data show it: active = GI50 up to about 1.1 µM and inactive = higher.

For the compound `O=C(O)/C=C/C(=O)Nc1nc[nH]n1`, the GI50 in assay [1] was > 100 µM (inactive); in assay [2], > 100 µM (inactive); in [3], > 100 µM (inactive); in [4] it was > 100 µM (inactive); in assay [5] it was > 100 µM (inactive); in [6], 62.5 µM (inactive). Further, the GI50 in [7], in assay [8], in [9], in assay [10], in [11] and in [12] was > 100 µM (inactive) in each case. In addition, the GI50 is > 100 µM (inactive) in assay [13]; over 100 µM in assay [14]; > 100 µM (inactive) in assay [15]; > 100 µM (inactive) in assay [16]; > 100 µM (inactive) in assay [17]; > 100 µM (inactive) in assay [18]. Also, the GI50 in [19] is > 100 µM (inactive).

As to `CC1=NOC(=O)/C1=C/c1ccc2c(c1)OCO2`, the GI50 is 19.6 µM (inactive) in assay [1]; 63.1 µM (inactive) in assay [2]; 24 µM (inactive) in assay [3]; 19.1 µM (inactive) in assay [4]; 19.2 µM (inactive) in assay [5]; 37.3 µM (inactive) in assay [7]. Further, the GI50 in assay [8] is 24.5 µM (inactive); in [9], 26.3 µM (inactive); in assay [20], 55.3 µM (inactive); in [10], 25.1 µM (inactive); in [11], 61.8 µM (inactive); in assay [12], 17.7 µM (inactive). Also, the GI50 in [13] is 25.2 µM (inactive); in assay [14] it was 20.8 µM; in assay [15] it was 23.4 µM (inactive); in assay [16] it was 22.1 µM (inactive); in [17], 35.1 µM (inactive); in assay [18] it was 21.9 µM (inactive). For the same compound, the GI50 in assay [19] was 17.3 µM (inactive).

For the compound `CCCCc1ccc(Nc2nc(Cl)c3[nH]cnc3n2)cc1`, the GI50 was 14.6 µM (inactive) in assay [1]; 34.4 µM (inactive) in [2]; 28.1 µM (inactive) in assay [3]; 20.8 µM (inactive) in assay [4]; 14 µM (inactive) in assay [5]; 20.4 µM (inactive) in assay [6]. Besides, the GI50 in assay [7] was 17.7 µM (inactive); in [8], 16.6 µM (inactive); in [9], 21.4 µM (inactive); in assay [20], 32.7 µM (inactive); in [10] it was 17.9 µM (inactive); in assay [11] it was 33.5 µM (inactive). The GI50 in assay [12] was 24.2 µM (inactive); in assay [13] it was 25.6 µM (inactive); in assay [14] it was 18 µM; in [15], 16.8 µM (inactive); in assay [16], 33 µM (inactive); in [18], 15.7 µM (inactive). The GI50 in assay [19] was 27.2 µM (inactive).

Regarding `C/C(=N/NC(=S)N(C)C)c1ccccc1O`, the GI50 is 11.9 µM (inactive) in assay [1]; 11.3 µM (inactive) in assay [2]; 10.4 µM (inactive) in [3]; 6.31 µM (inactive) in assay [4]; 5.81 µM (inactive) in [5]; 20.5 µM (inactive) in assay [6]. Further, the GI50 is 20.7 µM (inactive) in assay [7]; 35.8 µM (inactive) in [8]; 36.1 µM (inactive) in assay [9]; 19.1 µM (inactive) in [20]; 18.9 µM (inactive) in [10]; 7.87 µM (inactive) in [11]. Also, the GI50 was 13.7 µM (inactive) in assay [12]; 5.98 µM (inactive) in assay [13]; 3.28 µM in assay [14]; 21.6 µM (inactive) in [15]; 6.82 µM (inactive) in assay [16]; 2.26 µM (inactive) in assay [17]. Moreover, the GI50 in assay [18] was 6.32 µM (inactive); in assay [19], 25.7 µM (inactive).

For the compound `C/C(=N/Nc1nc(C)cc(O)n1)C(=O)O`, the GI50 in [1], in assay [2], in assay [3], in assay [4], in [5] and in assay [6] was > 100 µM (inactive) each time. Moreover, the GI50 in [7], in assay [8], in [9], in assay [20], in assay [10] and in assay [11] was > 100 µM (inactive) in each case. Also, the GI50 in assay [12] is > 100 µM (inactive); in assay [13], > 100 µM (inactive); in assay [14], over 100 µM; in assay [15], > 100 µM (inactive); in assay [16], > 100 µM (inactive); in [17], > 100 µM (inactive). Further, the GI50 in assay [18] and in assay [19] was > 100 µM (inactive) in each case.

As to `Clc1ccc(/C=N/C23CC4CC(CC(C4)C2)C3)cc1Cl`, the GI50 in [1], in [2], in assay [3], in [4], in [5] and in assay [6] was > 10 µM (inactive) in each case. The GI50 in assay [7], in assay [8], in assay [9], in assay [20], in [10] and in [11] was > 10 µM (inactive) each time. In addition, the GI50 in [12] was > 10 µM (inactive); in [13] it was > 10 µM (inactive); in assay [14], over 10 µM; in [15], > 10 µM (inactive); in assay [16], > 10 µM (inactive); in [17] it was > 10 µM (inactive). Moreover, the GI50 in assay [18] and in assay [19] was > 10 µM (inactive) throughout.

Regarding `CC(C)(C)OC(=O)N1C(C2=COc3ccccc3O2)=COc2cccnc21`, the GI50 in assay [1] is 1.94 µM (inactive); in [2] it was 1.6 µM (inactive); in assay [3], 1.59 µM (inactive); in assay [4], 1.65 µM (inactive); in assay [5] it was 1.85 µM (inactive); in assay [6], 2.06 µM (inactive). In addition, the GI50 is 1.61 µM (inactive) in assay [7]; 1.81 µM (inactive) in assay [8]; 1.71 µM (inactive) in assay [9]; 1.99 µM (inactive) in assay [20]; 1.33 µM (inactive) in assay [10]; 1.98 µM (inactive) in assay [11]. Also, the GI50 in assay [12] is 1.9 µM (inactive); in [13], 1.62 µM (inactive); in [14] it was 1.77 µM; in assay [15], 1.74 µM (inactive); in assay [16], 15.7 µM (inactive); in assay [17], 1.74 µM (inactive). In addition, the GI50 is 1.83 µM (inactive) in [18] and 2.13 µM (inactive) in assay [19].

Regarding `Cn1nnc2c(C(N)=S)ncn2c1=O`, the GI50 in assay [1], in assay [2], in assay [3], in assay [4], in [5] and in assay [6] was > 100 µM (inactive) in each case. Also, the GI50 in [7], in assay [8], in assay [9], in assay [20], in assay [10] and in assay [11] was > 100 µM (inactive) in each case. In addition, the GI50 was > 100 µM (inactive) in assay [12]; > 100 µM (inactive) in assay [13]; over 100 µM in assay [14]; > 100 µM (inactive) in [15]; > 100 µM (inactive) in assay [16]; > 100 µM (inactive) in assay [17]. Besides, the GI50 in assay [18] and in assay [19] was > 100 µM (inactive) in each case.

As to `C#CCOC(=O)[C@@H](C)c1ccc2cc(OC)ccc2c1`, the GI50 is > 100 µM (inactive) in [1]; 96.8 µM (inactive) in assay [2]; 54.5 µM (inactive) in [3]; > 100 µM (inactive) in assay [4]; > 100 µM (inactive) in [5]; 32.1 µM (inactive) in assay [6]. Also, the GI50 in assay [7] was 63.5 µM (inactive); in [8], > 100 µM (inactive); in assay [9] it was > 100 µM (inactive); in assay [20] it was 44.8 µM (inactive); in assay [10], > 100 µM (inactive); in assay [12], > 100 µM (inactive). In addition, the GI50 in assay [13] is > 100 µM (inactive); in assay [14] it was 28.4 µM; in assay [15] it was 66.4 µM (inactive); in assay [16], 34.3 µM (inactive); in assay [17], > 100 µM (inactive); in assay [18], 71.9 µM (inactive). Moreover, the GI50 in [19] is > 100 µM (inactive).

For the compound `CC(=O)NNc1nc(C)c(C(/C=C/c2ccc(NC(C)=O)cc2)=N/NS(=O)(=O)c2ccc(C)cc2)s1`, the GI50 in assay [1], in [2], in assay [3], in [4], in assay [5] and in [6] was > 100 µM (inactive) each time. Further, the GI50 in assay [7], in [8], in assay [9], in assay [10], in [11] and in assay [12] was > 100 µM (inactive) throughout. Besides, the GI50 was > 100 µM (inactive) in [13]; over 100 µM in assay [14]; > 100 µM (inactive) in assay [15]; > 100 µM (inactive) in assay [16]; > 100 µM (inactive) in assay [17]; > 100 µM (inactive) in assay [18]. Also, in assay [19], the GI50 is > 100 µM (inactive).
